Where two headings read alike, the source gives them in different places.

Results on three compounds are retold here after patent publication US11208412B2 (DAEGU-GYEONGBUK MEDICAL INNOVATION FOUNDATION, priority 2017, dated 2021).

Test in all cases: Kinase selectivity, DiscoverX scanMAX Kinase assay panel (% control)
What all share (format): binding

The target of assay [1] is T1, kinases of the scanMAX Kinase assay panel (Homo sapiens, UniProt P08922).
T1 construct: purchased DiscoverX Co. (contract measurement) scanMAX Kinase assay panel
The note with it: kinase ROS1; 1 uM in DMSO. In short, it runs like this: (§1)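 Compounds tested at 1 uM against the scanMAX kinase panel. Signal expressed as % control = (compound − positive control)/(DMSO negative control − positive control) × 100, where positive control = 0% and DMSO = 100%; below 35% counted as activity on that kinase.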

Assay [2] addresses T2, kinases of the scanMAX Kinase assay panel (Homo sapiens, UniProt P35916).
T2 construct: purchased DiscoverX Co. (contract measurement) scanMAX Kinase assay panel
The note with it: FLT4; 1 uM. In short, it runs like this:
as §1

Assay [3] has as its target T3, kinases of the scanMAX Kinase assay panel (Homo sapiens, UniProt P42336, I800L).
T3 construct: purchased DiscoverX Co. (contract measurement) scanMAX Kinase assay panel
As to conditions: PIK3CA(I800L); 1 uM. In short, it runs like this:
as §1

In assay [4] the target is T4, kinases of the scanMAX Kinase assay panel (Homo sapiens, UniProt P49761).
T4 construct: purchased DiscoverX Co. (contract measurement) scanMAX Kinase assay panel
As to conditions: CLK3; 1 uM. In short, it runs like this:
as §1

The target in assay [5] is T5, kinases of the scanMAX Kinase assay panel (Homo sapiens, UniProt P51812).
T5 construct: purchased DiscoverX Co. (contract measurement) scanMAX Kinase assay panel
As to conditions: 1 uM in DMSO. In short, it runs like this:
as §1

Assay [6] concerns the target T6, kinases of the scanMAX Kinase assay panel (Homo sapiens, UniProt P54764).
T6 construct: purchased DiscoverX Co. (contract measurement) scanMAX Kinase assay panel
The note with it: EPHA4; 1 uM. The gist of the method:
as §1

Assay [7] deals with T7, kinases of the scanMAX Kinase assay panel (Homo sapiens, UniProt Q13237).
T7 construct: purchased DiscoverX Co. (contract measurement) scanMAX Kinase assay panel
T7 sequence (Q13237 1-762): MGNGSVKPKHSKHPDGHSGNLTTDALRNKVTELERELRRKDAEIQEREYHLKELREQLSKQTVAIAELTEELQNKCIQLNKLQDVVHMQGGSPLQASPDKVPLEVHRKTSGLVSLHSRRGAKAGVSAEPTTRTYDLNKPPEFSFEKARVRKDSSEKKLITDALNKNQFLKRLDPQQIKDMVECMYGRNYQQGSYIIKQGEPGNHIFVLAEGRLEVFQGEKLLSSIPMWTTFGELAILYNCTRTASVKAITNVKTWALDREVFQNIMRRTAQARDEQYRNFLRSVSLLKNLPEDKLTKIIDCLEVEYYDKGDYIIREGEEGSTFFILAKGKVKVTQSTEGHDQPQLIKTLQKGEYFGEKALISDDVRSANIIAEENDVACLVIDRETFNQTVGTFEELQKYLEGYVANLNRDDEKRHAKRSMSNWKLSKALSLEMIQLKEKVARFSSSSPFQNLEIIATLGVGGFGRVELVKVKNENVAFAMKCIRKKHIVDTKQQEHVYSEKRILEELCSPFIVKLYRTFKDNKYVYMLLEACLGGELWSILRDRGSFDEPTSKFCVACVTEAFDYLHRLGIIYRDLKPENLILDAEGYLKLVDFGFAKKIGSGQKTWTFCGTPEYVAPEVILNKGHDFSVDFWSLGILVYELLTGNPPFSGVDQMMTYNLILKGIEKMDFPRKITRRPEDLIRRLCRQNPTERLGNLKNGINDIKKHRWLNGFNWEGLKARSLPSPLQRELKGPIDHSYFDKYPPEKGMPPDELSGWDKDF
The note with it: PRKG2; 1 uM. In short, it runs like this:
as §1

In assay [8] the target is T8, kinases of the scanMAX Kinase assay panel (Homo sapiens, UniProt Q16513).
T8 construct: purchased DiscoverX Co. (contract measurement) scanMAX Kinase assay panel
The note with it: PKN2; 1 uM. The gist of the method:
as §1

Assay [9] deals with T9, kinases of the scanMAX Kinase assay panel (Homo sapiens, UniProt Q96L34).
T9 construct: purchased DiscoverX Co. (contract measurement) scanMAX Kinase assay panel
T9 sequence (Q96L34 1-752): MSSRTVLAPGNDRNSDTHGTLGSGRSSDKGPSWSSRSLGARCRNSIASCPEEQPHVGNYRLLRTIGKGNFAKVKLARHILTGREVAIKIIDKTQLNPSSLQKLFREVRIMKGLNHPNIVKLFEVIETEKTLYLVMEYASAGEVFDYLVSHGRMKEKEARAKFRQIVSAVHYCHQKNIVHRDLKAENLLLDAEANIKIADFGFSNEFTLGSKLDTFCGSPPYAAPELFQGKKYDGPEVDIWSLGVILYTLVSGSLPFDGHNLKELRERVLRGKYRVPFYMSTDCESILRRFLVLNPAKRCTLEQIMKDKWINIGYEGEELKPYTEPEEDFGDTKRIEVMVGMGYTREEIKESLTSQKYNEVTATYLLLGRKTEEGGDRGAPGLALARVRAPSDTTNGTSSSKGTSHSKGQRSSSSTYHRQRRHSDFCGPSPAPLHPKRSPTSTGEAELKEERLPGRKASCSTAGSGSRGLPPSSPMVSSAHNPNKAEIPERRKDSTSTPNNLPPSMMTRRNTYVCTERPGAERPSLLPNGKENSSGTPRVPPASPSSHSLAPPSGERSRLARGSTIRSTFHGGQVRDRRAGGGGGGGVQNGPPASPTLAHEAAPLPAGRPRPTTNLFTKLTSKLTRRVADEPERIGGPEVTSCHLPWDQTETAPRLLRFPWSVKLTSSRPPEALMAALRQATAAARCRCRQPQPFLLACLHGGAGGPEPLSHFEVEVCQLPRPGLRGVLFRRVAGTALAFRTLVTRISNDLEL
The note with it: MARK4; 1 uM. In short, it runs like this: as §1

The target in assay [10] is T10, kinases of the scanMAX Kinase assay panel (Homo sapiens, UniProt Q9H3Y6).
T10 construct: purchased DiscoverX Co. (contract measurement) scanMAX Kinase assay panel
As to conditions: kinase SRMS; 1 uM in DMSO. In short, it runs like this:
as §1

In assay [11] the target is T11, kinases of the scanMAX Kinase assay panel (Homo sapiens, UniProt Q9UM73).
T11 construct: purchased DiscoverX Co. (contract measurement) scanMAX Kinase assay panel
The note with it: ALK; 1 uM. The gist of the method:
as §1

Assay [12] relates to kinases of the scanMAX Kinase assay panel. As to conditions: 1 uM. In short, it runs like this: as §1
Setting [13] is: kinase RSK2(Kin.Dom.1-N-terminal), read-out: % control, RSK2(Kin.Dom.1-N-terminal).
The mark [14] stands for this setting: kinase RSK2(Kin.Dom.2-C-terminal), read-out: % control, RSK2(Kin.Dom.2-C-terminal).

T2 sequence (P35916 25-1363): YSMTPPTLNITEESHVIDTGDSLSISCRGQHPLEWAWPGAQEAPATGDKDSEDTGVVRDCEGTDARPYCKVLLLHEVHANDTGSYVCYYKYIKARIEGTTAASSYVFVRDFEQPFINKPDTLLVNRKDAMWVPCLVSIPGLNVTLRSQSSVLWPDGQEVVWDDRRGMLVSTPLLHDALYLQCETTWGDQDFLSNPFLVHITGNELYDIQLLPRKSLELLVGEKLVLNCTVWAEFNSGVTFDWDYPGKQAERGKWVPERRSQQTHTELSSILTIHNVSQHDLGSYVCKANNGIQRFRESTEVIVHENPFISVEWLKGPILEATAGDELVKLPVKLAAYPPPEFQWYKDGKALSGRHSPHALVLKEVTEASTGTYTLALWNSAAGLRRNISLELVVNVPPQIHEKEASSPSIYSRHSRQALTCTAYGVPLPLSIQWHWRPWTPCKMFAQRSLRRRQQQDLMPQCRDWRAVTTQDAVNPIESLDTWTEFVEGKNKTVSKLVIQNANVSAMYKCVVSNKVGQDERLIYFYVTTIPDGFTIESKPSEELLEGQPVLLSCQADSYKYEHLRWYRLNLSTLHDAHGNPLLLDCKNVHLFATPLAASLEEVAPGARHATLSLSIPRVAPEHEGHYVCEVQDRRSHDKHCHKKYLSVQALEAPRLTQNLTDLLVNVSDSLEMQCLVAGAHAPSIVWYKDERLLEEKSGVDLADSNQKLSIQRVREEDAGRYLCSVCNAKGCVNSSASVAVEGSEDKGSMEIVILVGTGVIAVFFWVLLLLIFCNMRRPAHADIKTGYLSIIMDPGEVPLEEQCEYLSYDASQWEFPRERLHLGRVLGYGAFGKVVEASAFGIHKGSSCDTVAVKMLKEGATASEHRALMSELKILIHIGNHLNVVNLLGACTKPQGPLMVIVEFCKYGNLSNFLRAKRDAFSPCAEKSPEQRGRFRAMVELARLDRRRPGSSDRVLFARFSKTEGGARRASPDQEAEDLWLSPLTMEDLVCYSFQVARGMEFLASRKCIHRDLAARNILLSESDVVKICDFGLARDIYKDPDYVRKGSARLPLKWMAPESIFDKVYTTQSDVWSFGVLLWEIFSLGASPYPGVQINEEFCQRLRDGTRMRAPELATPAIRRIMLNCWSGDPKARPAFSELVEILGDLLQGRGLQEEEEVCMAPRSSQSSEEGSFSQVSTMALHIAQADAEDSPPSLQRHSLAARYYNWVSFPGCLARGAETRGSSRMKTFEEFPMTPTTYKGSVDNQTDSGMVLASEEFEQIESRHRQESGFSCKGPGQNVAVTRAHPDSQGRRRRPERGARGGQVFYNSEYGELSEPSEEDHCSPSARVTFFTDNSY
T4 sequence (P49761 whole entry): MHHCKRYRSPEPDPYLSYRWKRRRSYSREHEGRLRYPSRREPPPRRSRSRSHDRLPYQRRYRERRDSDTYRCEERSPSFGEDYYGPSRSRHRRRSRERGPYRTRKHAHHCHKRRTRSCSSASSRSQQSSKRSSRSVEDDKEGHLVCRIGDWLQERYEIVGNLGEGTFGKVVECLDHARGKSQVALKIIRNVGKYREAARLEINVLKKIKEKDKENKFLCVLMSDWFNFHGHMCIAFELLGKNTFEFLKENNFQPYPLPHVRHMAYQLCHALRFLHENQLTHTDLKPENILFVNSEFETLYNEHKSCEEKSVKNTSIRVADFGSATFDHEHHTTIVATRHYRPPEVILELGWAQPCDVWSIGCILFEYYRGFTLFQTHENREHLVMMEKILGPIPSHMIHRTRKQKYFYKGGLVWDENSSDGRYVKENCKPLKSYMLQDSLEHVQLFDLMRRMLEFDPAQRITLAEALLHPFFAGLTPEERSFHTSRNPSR
T10 sequence (Q9H3Y6 whole entry): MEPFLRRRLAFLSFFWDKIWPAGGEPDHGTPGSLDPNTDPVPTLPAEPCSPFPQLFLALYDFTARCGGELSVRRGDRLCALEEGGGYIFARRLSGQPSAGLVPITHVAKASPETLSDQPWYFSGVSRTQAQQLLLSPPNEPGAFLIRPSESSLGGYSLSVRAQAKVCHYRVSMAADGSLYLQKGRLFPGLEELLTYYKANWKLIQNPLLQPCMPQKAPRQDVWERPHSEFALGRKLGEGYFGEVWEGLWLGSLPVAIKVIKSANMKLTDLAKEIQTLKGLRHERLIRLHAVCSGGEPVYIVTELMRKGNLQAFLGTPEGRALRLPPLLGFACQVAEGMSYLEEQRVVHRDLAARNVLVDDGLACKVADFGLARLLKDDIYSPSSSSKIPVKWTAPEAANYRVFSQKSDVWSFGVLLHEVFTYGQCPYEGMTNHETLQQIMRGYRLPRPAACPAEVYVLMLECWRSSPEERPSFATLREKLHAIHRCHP
T1 sequence (P08922 28-2347): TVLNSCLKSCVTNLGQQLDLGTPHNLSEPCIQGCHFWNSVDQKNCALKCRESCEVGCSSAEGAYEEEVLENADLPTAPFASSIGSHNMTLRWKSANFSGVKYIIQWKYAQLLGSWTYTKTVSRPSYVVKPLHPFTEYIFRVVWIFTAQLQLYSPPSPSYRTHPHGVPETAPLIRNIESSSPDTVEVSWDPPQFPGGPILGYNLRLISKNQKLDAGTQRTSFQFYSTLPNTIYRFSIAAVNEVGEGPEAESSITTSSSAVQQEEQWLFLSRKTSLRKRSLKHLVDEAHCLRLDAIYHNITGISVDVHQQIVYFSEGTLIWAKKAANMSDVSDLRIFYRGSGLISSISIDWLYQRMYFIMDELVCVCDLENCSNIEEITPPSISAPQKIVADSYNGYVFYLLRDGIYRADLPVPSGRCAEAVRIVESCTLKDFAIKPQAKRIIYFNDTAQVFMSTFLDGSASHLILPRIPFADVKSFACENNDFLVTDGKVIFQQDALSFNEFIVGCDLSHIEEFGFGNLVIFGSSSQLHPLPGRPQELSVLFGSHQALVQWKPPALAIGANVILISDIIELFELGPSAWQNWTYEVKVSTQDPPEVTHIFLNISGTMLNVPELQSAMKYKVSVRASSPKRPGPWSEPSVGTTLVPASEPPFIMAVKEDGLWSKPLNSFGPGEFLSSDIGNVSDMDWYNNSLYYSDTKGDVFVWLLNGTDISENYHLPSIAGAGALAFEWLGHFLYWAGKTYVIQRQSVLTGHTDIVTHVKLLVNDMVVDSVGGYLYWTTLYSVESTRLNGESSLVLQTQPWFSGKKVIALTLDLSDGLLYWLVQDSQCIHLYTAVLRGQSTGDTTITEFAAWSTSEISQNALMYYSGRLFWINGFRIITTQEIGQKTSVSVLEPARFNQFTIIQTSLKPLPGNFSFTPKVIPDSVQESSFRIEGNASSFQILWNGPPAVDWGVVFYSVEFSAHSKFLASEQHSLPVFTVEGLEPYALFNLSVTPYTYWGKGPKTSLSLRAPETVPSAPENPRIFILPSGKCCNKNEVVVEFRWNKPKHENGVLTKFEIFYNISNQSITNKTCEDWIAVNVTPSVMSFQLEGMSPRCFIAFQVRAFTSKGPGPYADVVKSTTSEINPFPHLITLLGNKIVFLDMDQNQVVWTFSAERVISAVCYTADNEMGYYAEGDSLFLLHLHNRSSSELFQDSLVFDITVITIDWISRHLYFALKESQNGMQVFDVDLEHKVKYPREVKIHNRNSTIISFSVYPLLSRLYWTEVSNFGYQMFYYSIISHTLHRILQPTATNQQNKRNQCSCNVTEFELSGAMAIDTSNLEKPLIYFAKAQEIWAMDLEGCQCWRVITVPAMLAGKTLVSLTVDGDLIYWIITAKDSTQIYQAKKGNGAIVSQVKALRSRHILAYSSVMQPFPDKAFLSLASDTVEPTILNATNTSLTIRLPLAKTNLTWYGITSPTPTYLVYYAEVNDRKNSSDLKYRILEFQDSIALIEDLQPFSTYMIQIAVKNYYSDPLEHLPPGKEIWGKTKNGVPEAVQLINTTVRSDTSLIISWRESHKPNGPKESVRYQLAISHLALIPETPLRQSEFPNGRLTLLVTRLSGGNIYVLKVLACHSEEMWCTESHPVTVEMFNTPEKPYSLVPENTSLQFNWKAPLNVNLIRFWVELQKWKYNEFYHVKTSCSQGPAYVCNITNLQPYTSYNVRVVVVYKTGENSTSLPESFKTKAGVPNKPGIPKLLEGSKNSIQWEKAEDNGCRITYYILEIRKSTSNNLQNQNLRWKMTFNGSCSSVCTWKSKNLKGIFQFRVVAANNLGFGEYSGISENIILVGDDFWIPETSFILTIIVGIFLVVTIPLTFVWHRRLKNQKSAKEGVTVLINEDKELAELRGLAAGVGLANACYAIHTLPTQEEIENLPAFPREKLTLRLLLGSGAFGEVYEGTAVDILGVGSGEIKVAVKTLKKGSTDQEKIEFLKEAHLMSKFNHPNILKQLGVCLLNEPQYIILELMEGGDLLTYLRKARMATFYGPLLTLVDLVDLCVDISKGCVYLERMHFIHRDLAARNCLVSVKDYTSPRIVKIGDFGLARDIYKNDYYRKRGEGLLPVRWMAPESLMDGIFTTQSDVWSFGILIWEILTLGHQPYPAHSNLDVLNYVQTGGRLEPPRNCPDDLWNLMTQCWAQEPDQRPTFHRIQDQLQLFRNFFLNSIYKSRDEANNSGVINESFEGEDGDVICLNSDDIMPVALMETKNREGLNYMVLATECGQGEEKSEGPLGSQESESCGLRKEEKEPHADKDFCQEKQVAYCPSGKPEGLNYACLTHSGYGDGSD

Turning to `CNc1nc(Nc2ccc(C(=O)N3CCOCC3)cc2OC)nc2[nH]cc(C#N)c12` [Example 1, 2-((2-methoxy-4-(morpholine-4-carbonyl)phenyl)amino)-4-(methylamino)-7H-pyrrolo[2,3-d]pyrimidine-5-carbonitrile], the remaining binding at 1 µM amounted to 56% in [1]; 100% in [2]; 100% in assay [3]; 70% in assay [4]; 68% in [5] (setting [13]); 66% in [5] (setting [14]). The remaining binding at 1 µM in [6] was 93%; in assay [7] it was 100%; in [8], 53%; in assay [9], 84%; in [10], 69%; in assay [11], 13%. Moreover, the “% control” value in assay [12] (EGFR(L747-E749de1, A750P)) came to 98.0%; in assay [12] (EGFR(L747-S752de1, P753S)), 100.0%; in assay [12] (EGFR(L747-T751de1, Sins)), 61.0%; in assay [12] (EPHAl) it was 93.0%; in [12] (FLT3(ITD)), 83.0%; in assay [12] (FLT3(ITD, D835V)) it was 51.0%. Moreover, in [12] (FLT3(ITD, F691L)), the “% control” value was found to be 47.0%.

As for `CC1(Nc2nc(Nc3cnn([C@H]4CCN(C5COC5)C[C@@H]4F)c3Cl)nc3[nH]cc(C#N)c23)CC1` [Example 52, 2-((5-chloro-1-((3S,4S)-3-fluoro-1-(oxetane-3-yl)piperidine-4-yl)-1H-pyrazole-4-yl)amino)((1-methylcyclopropyl)amino)-7H-pyrrolo[2,3-d]pyrimidine-5-carbonitrile], the remaining binding at 1 µM was found to be 23% in assay [1]; 0.6% in assay [2]; 0.1% in assay [3]; 27% in assay [4]; 0.55% in assay [5] (setting [13]); 100% in [5] (setting [14]). The remaining binding at 1 µM was found to be 75% in assay [6]; 94% in [7]; 78% in assay [8]; 37% in assay [9]; 41% in assay [10]; 3% in assay [11]. In addition, the “% control” value is reported as 38% in assay [12] (EGFR(L747-E749de1, A750P)); 49% in assay [12] (EGFR(L747-S752de1, P753S)); 68% in assay [12] (EGFR(L747-T751de1, Sins)); 58% in assay [12] (EPHAl); 0% in assay [12] (FLT3(ITD)); 0% in assay [12] (FLT3(ITD, D835V)). Besides, in assay [12] (FLT3(ITD, F691L)), the “% control” value is 0.7%.

On to `CCNc1nc(Nc2ccc(C(=O)N3CCC(N4CCOCC4)CC3)cc2OC)nc2[nH]cc(C(F)(F)F)c12` [Example 104, (4-((4-(ethylamino)-5-(trifluoromethyl)-7H-pyrrolo[2,3-d]pyrimidine-2-yl)amino)-3-methoxyphenyl)(4-morpholinopiperidine-1-yl)methanone], for which the remaining binding at 1 µM in assay [1] came to 22%; in assay [2], 97%; in assay [3], 72%; in assay [4] it was 4%; in assay [5] (setting [13]), 100%; in assay [5] (setting [14]), 71%. In addition, the remaining binding at 1 µM was determined as 100% in [6]; 91% in assay [7]; 100% in assay [8]; 100% in assay [9]; 66% in assay [10]; 0.35% in assay [11]. The “% control” value in assay [12] (EGFR(L747-E749de1, A750P)) was 99%; in [12] (EGFR(L747-S752de1, P753S)), 98%; in assay [12] (EGFR(L747-T751de1, Sins)) it was 100%; in assay [12] (EPHAl) it was 100%; in assay [12] (FLT3(ITD)), 21%; in assay [12] (FLT3(ITD, D835V)), 15%. In addition, the “% control” value in assay [12] (FLT3(ITD, F691L)) amounted to 79%.
